The values that follow come from US10214531B2 (Institute for Drug Discovery, LLC, priority 2013, dated 2019).

Each structure is given as a SMILES string. pIC50: −log10 of the molar value. Where a name gives a salt, the structure may show the parent alone.

This test addresses recombinant human AMCase (Homo sapiens, UniProt Q9BZP6). The experiment in a line: Human AMCase Activity Assay. In kind it is biochemical. As to conditions: recombinant hAMCase, 4-methylumbelliferyl chitobioside substrate, citrate buffer pH 5.2, 37° C., 60 minutes; read-out: Activity (IC50 value key). As for the experimental part:
Human AMCase Activity Assay
The assay was run in the 96-well plate format, each reaction in the total volume of 100 μl. 4-Methylumbelliferyl B-D-N,N′ diacetylchitobioside hydrate was used as a substrate for the enzyme. Upon hydrolysis by AMCase, the substrate releases 4-methylumbelliferyl (4MU), when ionized in basic pH, emits fluorescence of 460 nm.
Briefly, 40 μl of a substrate was added to each well, followed by 10 μl of compound dilution and 50 μl of hAMCase recombinant enzyme solution. The reaction was carried out in citrate buffer, pH 5.2, in the dark, at 37° C. for 60 minutes with shaking.

recombinant human AMCase, sequence (Q9BZP6 22-476): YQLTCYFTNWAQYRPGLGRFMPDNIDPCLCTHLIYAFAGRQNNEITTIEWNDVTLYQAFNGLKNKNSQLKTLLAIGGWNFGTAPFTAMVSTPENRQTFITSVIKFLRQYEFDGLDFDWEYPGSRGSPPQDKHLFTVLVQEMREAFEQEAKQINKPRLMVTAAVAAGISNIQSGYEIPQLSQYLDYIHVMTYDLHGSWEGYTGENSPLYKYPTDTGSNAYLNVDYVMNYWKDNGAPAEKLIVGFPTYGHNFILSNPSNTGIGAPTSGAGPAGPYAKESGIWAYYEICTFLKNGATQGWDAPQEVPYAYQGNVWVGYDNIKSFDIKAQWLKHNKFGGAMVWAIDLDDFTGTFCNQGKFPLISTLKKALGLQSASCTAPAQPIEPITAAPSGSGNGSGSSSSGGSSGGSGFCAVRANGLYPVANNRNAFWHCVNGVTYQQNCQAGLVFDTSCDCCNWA

As to `CC1CN(c2nc(N)n[nH]2)CCC1NCCc1ccc(Cl)cc1` (mixture of isomers) [Example 132, 1-(3-amino-1H-1,2,4-triazol-5-yl)-N-(4-chlorophenethyl)-3-methylpiperidin-4-amine dihydrochloride (4:1 diastereoisomeric mixture)], the pIC50 – broadly, the IC50 on a negative log10 scale, so that one unit is a factor of ten – is 6.00 to 7.00.

Regarding `CCCC1CN(c2nc(N)n[nH]2)CCC1NCCc1ccc(Cl)cc1` (single isomer, unassigned) [Example 231, 1-(3-amino-1H-1,2,4-triazol-5-yl)-N-(4-chlorophenethyl)-3-propylpiperidin-4-amine], the pIC50 was 6.00 to 7.00. Under `CCCC1CN(c2nc(N)n[nH]2)CCC1NCCc1ccc(Cl)cc1` (single isomer, unassigned) [Example 234, 1-(3-amino-1H-1,2,4-triazol-5-yl)-N-(4-chlorophenethyl)-3-propylpiperidin-4-amine] stands 6.00 to 7.00.

With `Nc1n[nH]c(N2CCN(CCOc3ccc(F)cc3)CC2)n1` [Example 1, 5-(4-(2-(4-fluorophenoxy)ethyl)piperazin-1-yl)-1H-1,2,4-triazol-3-amine], the pIC50 was less than 4.00. Under `Nc1n[nH]c(N2CCN(CCOc3ccc(Cl)cc3)CC2)n1` [Example 2, 5-(4-(2-(4-chlorophenoxy)ethyl)piperazin-1-yl)-1H-1,2,4-triazol-3-amine] stands 5.00 to 6.00. `CCOc1ccc(CN2CCN(c3nc(N)n[nH]3)CC2)cc1` [Example 3, 5-(4-(4-ethoxybenzyl)piperazin-1-yl)-1H-1,2,4-triazol-3-amine]: the negative-log IC50 (pIC50) was less than 4.00.

In the case of `CCC(Oc1ccc(Br)cc1)C(=O)N1CCN(c2nc(N)n[nH]2)CC1` (stereo not drawn) [Example 5, 1-[4-(3-amino-1H-1,2,4-triazol-5-yl)piperazin-1-yl]-2-(4-bromophenoxy)butan-1-one], the pIC50 was less than 4.00. In the case of `C[C@@H](Oc1ccc(Br)cc1)C(=O)N1CCN(c2nc(N)n[nH]2)CC1` [Example 6, (R)-1-(4-(3-amino-1H-1,2,4-triazol-5-yl)piperazin-1-yl)-2-(4-bromophenoxy)propan-1-one], the negative-log IC50 (pIC50) was less than 4.00. In the case of `C[C@H](Oc1ccc(Br)cc1)C(=O)N1CCN(c2nc(N)n[nH]2)CC1` [Example 7, (S)-1-(4-(3-amino-1H-1,2,4-triazol-5-yl)piperazin-1-yl)-2-(4-bromophenoxy)-propan-1-one] it was less than 4.00. Under `CCC(Oc1ccc(Cl)cc1)C(=O)N1CCN(c2nc(N)n[nH]2)CC1` (stereo not drawn) [Example 8, 1-(4-(3-amino-1H-1,2,4-triazol-5-yl)piperazin-1-yl)-2-(4-chlorophenoxy)-butan-1-one] stands less than 4.00; under `C[C@@H](Oc1ccc(Cl)cc1)C(=O)N1CCN(c2nc(N)n[nH]2)CC1` [Example 9, (R)-1-(4-(3-amino-1H-1,2,4-triazol-5-yl)piperazin-1-yl)-2-(4-chlorophenoxy)-propan-1-one], less than 4.00.

Consider `C[C@H](Oc1ccc(Cl)cc1)C(=O)N1CCN(c2nc(N)n[nH]2)CC1` [Example 10, (S)-1-(4-(3-amino-1H-1,2,4-triazol-5-yl)piperazin-1-yl)-2-(4-chlorophenoxy)propan-1-one], for which the pIC50 is less than 4.00. Under `Nc1n[nH]c(N2CCC(CNS(=O)(=O)c3ccc(Br)cc3)CC2)n1` [Example 12, N-((1-(3-amino-1H-1,2,4-triazol-5-yl)piperidin-4-yl)methyl)-4-bromobenzenesulfonamide] stands less than 4.00; under `Nc1n[nH]c(N2CCC(NS(=O)(=O)Cc3ccc(Cl)cc3)CC2)n1` [Example 14, N-(1-(3-amino-1H-1,2,4-triazol-5-yl)piperidin-4-yl)-1-(4-chlorophenyl)methanesulfonamide dihydrochloride], 5.00 to 6.00. Turning to `Nc1n[nH]c(N2CCC(NS(=O)(=O)Cc3ccc(Cl)c(Cl)c3)CC2)n1` [Example 15, N-(1-(3-amino-1H-1,2,4-triazol-5-yl)piperidin-4-yl)-1-(3,4-dichlorophenyl)methanesulfonamide], the negative logarithm of the IC50 (pIC50) is 4.00 to 5.00. Under `Nc1n[nH]c(N2CCC(C(=O)NCc3ccc(Cl)c(Cl)c3)CC2)n1` [Example 17, 1-(3-amino-1H-1,2,4-triazol-5-yl)-N-(3,4-dichlorobenzyl)piperidine-4-carboxamide] stands less than 4.00.

Consider `CC(CCc1ccc(Br)cc1)N1CCN(c2nc(N)n[nH]2)CC1` (stereo not drawn) [Example 19, 5-(4-(4-(4-bromophenyl)butan-2-yl)piperazin-1-yl)-1H-1,2,4-triazol-3-amine], for which the negative logarithm of the IC50 (pIC50) is 4.00 to 5.00. `CC(CN1CCN(c2nc(N)n[nH]2)CC1)Oc1ccc(Br)cc1` (stereo not drawn) [Example 20-1, 5-(4-(2-(4-bromophenoxy)propyl)piperazin-1-yl)-1H-1,2,4-triazol-3-amine]: the negative-log IC50 (pIC50) is 4.00 to 5.00. Under `CC(COc1ccc(Br)cc1)N1CCN(c2nc(N)n[nH]2)CC1` (stereo not drawn) [Example 20-2, 5-(4-(1-(4-bromophenoxy)propan-2-yl)piperazin-1-yl)-1H-1,2,4-triazol-3-amine] stands 4.00 to 5.00; under `Nc1n[nH]c(N2CCC(NCCc3ccc(Br)cc3)CC2)n1` [Example 22, 1-(3-amino-1H-1,2,4-triazol-5-yl)-N-(4-bromophenethyl)piperidin-4-amine], 5.00 to 6.00. In the case of `Nc1n[nH]c(N2CCN(CCOc3ccc(Cl)c4ccccc34)CC2)n1` [Example 23, 5-(4-(2-((4-chloronaphthalen-1-yl)oxy)ethyl)piperazin-1-yl)-1H-1,2,4-triazol-3-amine] it was 5.00 to 6.00. For the compound `Nc1n[nH]c(N2CCN(C(=O)COc3ccc(Cl)cc3)CC2)n1` [Example 24, 1-(4-(3-amino-1H-1,2,4-triazol-5-yl)piperazin-1-yl)-2-(4-chlorophenoxy)-ethanone], the negative-log IC50 (pIC50) is less than 4.00. In the case of `Nc1n[nH]c(N2CCN(C(=O)COc3ccc4ccccc4c3)CC2)n1` [Example 25, 1-(4-(3-amino-1H-1,2,4-triazol-5-yl)piperazin-1-yl)-2-(naphthalen-2-yloxy) ethanone] it was less than 4.00; in that of `CC1CN(c2nc(N)n[nH]2)CCN1CCOc1ccc(Br)cc1` (stereo not drawn) [Example 26, 5-(4-(2-(4-bromophenoxy)ethyl)-3-methylpiperazin-1-yl)-1H-1,2,4-triazol-3-amine], 5.00 to 6.00.

As for `Cn1nc(N2CCN(CCOc3ccc(Br)cc3)CC2)nc1N` [Example 27-1, 3-(4-(2-(4-bromophenoxy)ethyl)piperazin-1-yl)-1-methyl-1H-1,2,4-triazol-5-amine], the pIC50 is less than 4.00. In the case of `Cn1nc(N)nc1N1CCN(CCOc2ccc(Br)cc2)CC1` [Example 27-2, 5-(4-(2-(4-bromophenoxy)ethyl)piperazin-1-yl)-1-methyl-1H-1,2,4-triazol-3-amine] it was less than 4.00; in that of `Nc1n[nH]c(N2CCCN(CCOc3ccc(Br)cc3)CC2)n1` [Example 28, 5-{4-[2-(4-bromophenoxy)ethyl]-[1,4]-diazepan-1-yl}-1H-1,2,4-triazol-3-amine], less than 4.00; in that of `Nc1n[nH]c(N2CC3CN(CCOc4ccc(Br)cc4)CC3C2)n1` (stereo not drawn) [Example 29, 5-(5-(2-(4-bromophenoxy)ethyl)hexahydropyrrolo[3,4-c]pyrrol-2(1H)-yl)-1H-1,2,4-triazol-3-amine], less than 4.00. In the case of `Nc1n[nH]c(N2CCN(C(=O)COc3ccccc3)CC2)n1` [Example 30, 1-(4-(3-amino-1H-1,2,4-triazol-5-yl)piperazin-1-yl)-2-phenoxyethanone] it was less than 4.00; in that of `CCc1ccc(OC(C)C(=O)N2CCN(c3nc(N)n[nH]3)CC2)cc1` (stereo not drawn) [Example 31, 1-(4-(3-amino-1H-1,2,4-triazol-5-yl)piperazin-1-yl)-2-(4-ethylphenoxy)propan-1-one], less than 4.00; in that of `Cc1ccccc1OC(C)C(=O)N1CCN(c2nc(N)n[nH]2)CC1` (stereo not drawn) [Example 32, 1-(4-(3-amino-1H-1,2,4-triazol-5-yl)piperazin-1-yl)-2-(o-tolyloxy)propan-1-one], less than 4.00.

With `CCc1ccccc1OC(C)C(=O)N1CCN(c2nc(N)n[nH]2)CC1` (stereo not drawn) [Example 33, 1-(4-(3-amino-1H-1,2,4-triazol-5-yl)piperazin-1-yl)-2-(2-ethylphenoxy)propan-1-one], the pIC50 was less than 4.00. Turning to `Cc1ccc(C)c(OC(C)C(=O)N2CCN(c3nc(N)n[nH]3)CC2)c1` (stereo not drawn) [Example 34, 1-(4-(3-amino-1H-1,2,4-triazol-5-yl)piperazin-1-yl)-2-(2,5-dimethylphenoxy)propan-1-one], the pIC50 is less than 4.00. Under `Cc1ccc(OC(C)C(=O)N2CCN(c3nc(N)n[nH]3)CC2)c(C)c1` (stereo not drawn) [Example 35, 1-(4-(3-amino-1H-1,2,4-triazol-5-yl)piperazin-1-yl)-2-(2,4-dimethylphenoxy)propan-1-one] stands less than 4.00; under `Cc1cccc(OC(C)C(=O)N2CCN(c3nc(N)n[nH]3)CC2)c1` (stereo not drawn) [Example 36, 1-(4-(3-amino-1H-1,2,4-triazol-5-yl)piperazin-1-yl)-2-(m-tolyloxy)propan-1-one], less than 4.00. Under `CC(Oc1cccc(F)c1F)C(=O)N1CCN(c2nc(N)n[nH]2)CC1` (stereo not drawn) [Example 37, 1-(4-(3-amino-1H-1,2,4-triazol-5-yl)piperazin-1-yl)-2-(2,3-difluorophenoxy)propan-1-one] stands less than 4.00; under `Nc1n[nH]c(N2CCNCC2)n1` [Example 38, 5-(piperazin-1-yl)-1H-1,2,4-triazol-3-amine trihydrochloride], less than 4.00; under `CC(Cc1ccc(Br)cc1)CN1CCN(c2nc(N)n[nH]2)CC1` (stereo not drawn) [Example 39, 5-(4-(3-(4-bromophenyl)-2-methylpropyl)piperazin-1-yl)-1H-1,2,4-triazol-3-amine dihydrochloride], 5.00 to 6.00. In the case of `Nc1n[nH]c(N2CCN(C(=O)CC(N)c3ccc(Cl)cc3)CC2)n1` (stereo not drawn) [Example 40, 3-amino-1-(4-(3-amino-1H-1,2,4-triazol-5-yl)piperazin-1-yl)-3-(4-chlorophenyl)propan-1-one] it was less than 4.00.
